Test results taken from publication PMC7177897, “Benzylaminoethyureido-Tailed Benzenesulfonamides: Design, Synthesis, Kinetic and X-ray Investigations on Human Carbonic Anhydrases” (International Journal of Molecular Sciences, 2020).

Experiments:
hCA IX = target: T1, hCA IX (Homo sapiens, UniProt Q16790); experiment: stopped-flow CO2 hydration assay; assay type: biochemical
T1 construct: gene CA9; recombinant, made by the authors as in earlier publications
From the text: stopped-flow CO2 hydration assay on hCA IX

hCA XII = target: T2, hCA XII (Homo sapiens, UniProt O43570); experiment: stopped-flow CO2 hydration assay; assay type: biochemical
T2 construct: gene CA12; recombinant, made by the authors as in earlier publications
From the text: stopped-flow CO2 hydration assay on hCA XII

hCA II = target: T3, hCA II (Homo sapiens, UniProt P00918); experiment: stopped-flow CO2 hydration assay; assay type: biochemical
T3 construct: gene CA2; recombinant, made by the authors as in earlier publications; cytosolic isoform
From the text: stopped-flow CO2 hydration assay on hCA II

hCA I = target: T4, hCA I (Homo sapiens, UniProt P00915); experiment: stopped-flow CO2 hydration assay; assay type: biochemical
T4 construct: gene CA1; crystals from hCA I purchased from Sigma-Aldrich, residues 4-260 visible, two monomers per asymmetric unit
From the text: stopped-flow CO2 hydration assay on hCA I

[1] = stopped-flow CO2 hydration assay; assay type: biochemical, Homo sapiens; settings: read-out: hCA I

T4 sequence (P00915 2-261): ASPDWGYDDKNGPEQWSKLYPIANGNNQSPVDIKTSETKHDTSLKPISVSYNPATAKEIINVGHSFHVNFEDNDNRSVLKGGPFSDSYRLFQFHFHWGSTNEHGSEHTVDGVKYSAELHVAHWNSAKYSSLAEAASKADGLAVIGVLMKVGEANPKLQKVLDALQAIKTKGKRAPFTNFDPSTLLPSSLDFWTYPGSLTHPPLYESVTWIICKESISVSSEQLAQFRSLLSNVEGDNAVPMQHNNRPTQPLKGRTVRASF
T2 sequence (O43570 25-354 limits assumed): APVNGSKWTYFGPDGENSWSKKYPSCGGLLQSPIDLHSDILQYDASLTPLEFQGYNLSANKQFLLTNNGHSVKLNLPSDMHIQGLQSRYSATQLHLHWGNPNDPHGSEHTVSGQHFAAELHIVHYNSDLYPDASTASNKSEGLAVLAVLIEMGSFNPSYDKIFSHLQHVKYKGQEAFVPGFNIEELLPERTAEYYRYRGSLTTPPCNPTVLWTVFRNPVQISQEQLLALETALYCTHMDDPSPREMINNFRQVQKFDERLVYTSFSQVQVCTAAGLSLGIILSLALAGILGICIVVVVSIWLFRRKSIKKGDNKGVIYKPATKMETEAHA

SMILES	Ki (hCA IX)	Ki (hCA XII)	Ki (hCA II)	Ki (hCA I)	Ki [1]
NS(=O)(=O)c1cccc(NC(=O)NCCNCc2ccc(Br)cc2O)c1 [compound 34, 3-(3-(2-((4-bromo-2-hydroxybenzyl)amino)ethyl)ureido) benzenesulfonamide]	1920 nM	7.2 nM	2.8 nM	654 nM	
NS(=O)(=O)c1ccc(NC(=O)NCCNCc2ccccc2)cc1 [compound 16, 4-(3-(2-(benzylamino)ethyl)ureido) benzenesulfonamide]	1350 nM	54.5 nM	350 nM	552 nM	
NS(=O)(=O)c1ccc(NC(=O)NCCNCc2ccccc2F)cc1 [compound 19, 4-(3-(2-((2-fluorobenzyl)amino)ethyl)ureido) benzenesulfonamide]	20.3 nM	58.3 nM	3.9 nM	24.6 nM	
NS(=O)(=O)c1cccc(NC(=O)NCCNCc2ccc(F)cc2)c1 [compound 28, 3-(3-(2-((4-fluorobenzyl)amino)ethyl)ureido) benzenesulfonamide]	4210 nM	71.3 nM	53.8 nM	868 nM	
NS(=O)(=O)c1cccc(NC(=O)NCCNCc2ccc(Cl)cc2)c1 [compound 27, 3-(3-(2-((4-chlorobenzyl)amino)ethyl)ureido) benzenesulfonamide]	3380 nM	228 nM	36.9 nM	702 nM	
NS(=O)(=O)c1cccc(NC(=O)NCCNCc2ccc([N+](=O)[O-])cc2)c1 [compound 31, 3-(3-(2-((4-nitrobenzyl)amino)ethyl)ureido) benzenesulfonamide]	2320 nM	60.7 nM	168 nM	5850 nM	
NS(=O)(=O)c1ccc(NC(=O)NCCNCc2ccc(Br)cc2O)cc1 [compound 24, 4-(3-(2-((4-bromo-2-hydroxybenzyl)amino)ethyl)ureido) benzenesulfonamide]	116 nM	97.6 nM	5.3 nM	138 nM	
CN(C)c1ccc(CNCCNC(=O)Nc2cccc(S(N)(=O)=O)c2)cc1 [compound 32, 3-(3-(2-((4-(dimethylamino)benzyl)amino)ethyl)ureido) benzenesulfonamide]	1200 nM	78 nM	565 nM	8910 nM	
COc1cc([N+](=O)[O-])ccc1CNCCNC(=O)Nc1ccc(S(N)(=O)=O)cc1 [compound 23, 4-(3-(2-((2-methoxy-4-nitrobenzyl)amino)ethyl)ureido)benzenesulfonamide]	291 nM	53.6 nM	82.4 nM	788 nM	
COc1cc([N+](=O)[O-])ccc1CNCCNC(=O)Nc1cccc(S(N)(=O)=O)c1 [compound 33, 3-(3-(2-((2-methoxy-4-nitrobenzyl)amino)ethyl)ureido)benzenesulfonamide]	2610 nM	53.1 nM	90.2 nM	> 10000 nM	
NS(=O)(=O)c1cccc(NC(=O)NCCNCc2ccc(-c3ccccc3)cc2)c1 [compound 35, 3-(3-(2-(([1,1’-biphenyl]-4-ylmethyl)amino)ethyl)ureido) benzenesulfonamide]		688 nM	456 nM	> 10000 nM	> 10 µM
NS(=O)(=O)c1ccc(NC(=O)NCCNCc2ccc(F)cc2)cc1 [compound 18, 4-(3-(2-((4-fluorobenzyl)amino)ethyl)ureido) benzenesulfonamide]	30.1 nM	53.2 nM	9.2 nM	725 nM	
NS(=O)(=O)c1cccc(NC(=O)NCCNCc2ccccc2F)c1 [compound 29, 3-(3-(2-((2-fluorobenzyl)amino)ethyl)ureido) benzenesulfonamide]	> 10000 nM	479 nM	33.4 nM	728 nM	
NS(=O)(=O)c1cccc(NC(=O)NCCNCc2ccc(O)cc2)c1 [compound 30, 3-(3-(2-((4-hydroxybenzyl)amino)ethyl)ureido) benzenesulfonamide]	3510 nM	317 nM	166 nM	6250 nM	
CN(C)c1ccc(CNCCNC(=O)Nc2ccc(S(N)(=O)=O)cc2)cc1 [compound 22, 4-(3-(2-((4-(dimethylamino)benzyl)amino)ethyl)ureido) benzenesulfonamide]	343 nM	264 nM	73.2 nM	1510 nM	
NS(=O)(=O)c1ccc(NC(=O)NCCNCc2ccc(Cl)cc2)cc1 [compound 17, 4-(3-(2-((4-chlorobenzyl)amino)ethyl)ureido) benzenesulfonamide]	458 nM	32 nM	127 nM	582 nM	
NS(=O)(=O)c1ccc(NC(=O)NCCNCc2ccc(O)cc2)cc1 [compound 20, 4-(3-(2-((4-hydroxybenzyl)amino)ethyl)ureido) benzenesulfonamide]	974 nM	75.8 nM	267 nM	781 nM	
NS(=O)(=O)c1cccc(NC(=O)NCCNCc2ccccc2)c1 [compound 26, 3-(3-(2-(benzylamino)ethyl)ureido)benzenesulfonamide]	> 10000 nM	772 nM	76.3 nM	928 nM	
NS(=O)(=O)c1ccc(NC(=O)NCCNCc2ccc(-c3ccccc3)cc2)cc1 [compound 25, 4-(3-(2-(([1,1′-biphenyl]-4-ylmethyl)amino)ethyl)ureido) benzenesulfonamide]	1150 nM	63.7 nM	63.2 nM	782 nM	
NS(=O)(=O)c1ccc(NC(=O)NCCNCc2ccc([N+](=O)[O-])cc2)cc1 [compound 21, 4-(3-(2-((4-nitrobenzyl)amino)ethyl)ureido) benzenesulfonamide]	317 nM	77.5 nM	96.1 nM	527 nM	
